molecular target: T1, recombinant human AKR1C3 (Homo sapiens, UniProt P42330); assay: AKR1C3-inhibitory activity assay (generation of Coumberol from Coumberone); format: biochemical; details: Coumberone 0.3 μM, NADPH 10 μM, 22° C., typically 90 min, average or median values
T1 construct: GST (cleaved yes); made in house; host or cells: E. coli
T1 sequence (P42330 1-323): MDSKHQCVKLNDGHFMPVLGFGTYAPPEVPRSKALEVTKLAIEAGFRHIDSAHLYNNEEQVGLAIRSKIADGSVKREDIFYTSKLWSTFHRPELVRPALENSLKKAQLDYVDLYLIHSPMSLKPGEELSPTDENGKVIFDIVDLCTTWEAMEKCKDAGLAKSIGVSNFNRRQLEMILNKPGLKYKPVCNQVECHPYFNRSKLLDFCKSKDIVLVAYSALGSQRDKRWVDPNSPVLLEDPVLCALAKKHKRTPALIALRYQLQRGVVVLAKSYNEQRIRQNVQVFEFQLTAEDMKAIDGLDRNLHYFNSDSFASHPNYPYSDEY
Procedure: The AKR1C3-inhibitory activity of the substances of the present invention was measured in the AKR1C3 assay described in the paragraphs below.
Essentially, the enzyme activity is measured by quantification of the generation of Coumberol from Coumberone (Halim et al. J. AM. CHEM. SOC. 2008, 130:14123-14128 and Yee et al. Proc. Natl. Acad. Sci. USA 2006, 103:13304-13309). In this test, the increase of the highly fluorescent Coumberol by NADPH- (nicotinamide adenine dinucleotide phosphate)-dependent reduction of the non-fluorescent Coumberone by AKR1C3 was determined.
The enzyme used was recombinant human AKR1C3 (Aldo-keto reductase family 1 member C3; GenBank Accession No. NM_003739). This was expressed in E. coli as GST (glutathione S transferase) fusion protein and purified by glutathione Sepharose affinity chromatography. The GST was removed by digestion with thrombin and subsequent size exclusion chromatography (Dufort, I., Rheault, P., Huang, X F., Soucy, P., and Luu-The, V., Endocrinology 140, 568-574 (1999)).
For the assay, 50 nl of a 100-fold concentrated solution of the test substance in DMSO were pipetted into a black low-volume 384-well microtiter plate (Greiner Bio-One, Frickenhausen, Germany), 2.5 μl of a solution of AKR1C3 in assay buffer [50 mM potassium phosphate buffer pH 7, 1 mM DTT, 0.0022% (w/v) Pluronic F-127, 0.01% BSA (w/v) and protease inhibitor cocktail (Complete, EDTA-free Protease Inhibitor Cocktail from Roche)] were added and the mixture was incubated for 15 min to allow pre-binding of the substances to the enzyme prior to the enzyme reaction. The enzyme reaction was then started by addition of 2.5 μl of a solution of NADPH (20 μM→final concentration in 5 μl of assay volume is 10 μM) and Coumberone (0.6 μM→final concentration in 5 μl of assay volume is 0.3 μM) in assay buffer, and the resulting mixture was incubated at 22° C. for the reaction time of typically 90 min. The concentration of the AKR1C3 and the reaction time was adapted to the respective activity of the enzyme preparation and adjusted such that the assay was carried out in the linear range. Typical AKR1C3 concentrations were in the region of 1 nM. The reaction was stopped by addition of 2.5 μl of a stop solution consisting of 3 μM EM-1404 as inhibitor (U.S. Pat. No. 6,541,463) in 50 mM HEPES pH7.5 (3 μM EM-1404→final concentration in 7.5 μl of assay volume is 1 μM). The fluorescence of the Coumberole was then measured at 520 nm (excitation at 380 nm) using a suitable measuring instrument (Pherastar from BMG Labtechnologies). The intensity of the fluorescence was used as a measure of the amount of Coumberole formed and thus of the enzyme activity of AKR1C3. The data were normalized (enzyme reaction without inhibitor=0% inhibition; all other assay components, but no enzyme=100% inhibition).

IC50 [nM] | Compound
71 | CC1(C)CN(C(=O)c2cnn[nH]2)CCN1S(=O)(=O)c1ccc(F)cc1 [Example 30, {4-[(4-fluorophenyl)sulfonyl]-3,3-dimethylpiperazin-1-yl}(1H-1,2,3-triazol-5-yl)methanone]
10 | Cc1cccc(S(=O)(=O)N2CCN(C(=O)c3cnn[nH]3)CC2(C)C)c1 [Example 33, {3,3-dimethyl-4-[(3-methylphenyl)sulfonyl]piperazin-1-yl}(1H-1,2,3-triazol-5-yl)methanone]
26 | CC1(C)CN(C(=O)c2cnn[nH]2)CCN1S(=O)(=O)c1ccc(F)c(F)c1 [Example 36, {4-[(3,4-difluorophenyl)sulfonyl]-3,3-dimethylpiperazin-1-yl}(1H-1,2,3-triazol-5-yl)methanone]
3 | C[C@@H]1CN(C(=O)c2cnn[nH]2)C[C@H](C)N1S(=O)(=O)c1cccc(Cl)c1 [Example 39, {(3R,5S)-4-[(3-chlorophenyl)sulfonyl]-3,5-dimethylpiperazin-1-yl}(1H-1,2,3-triazol-5-yl)methanone]
9 | C[C@@H]1CN(C(=O)c2cnn[nH]2)C[C@H](C)N1S(=O)(=O)c1cccc(F)c1 [Example 41, {(3R,5S)-4-[(3-fluorophenyl)sulfonyl]-3,5-dimethylpiperazin-1-yl}(1H-1,2,3-triazol-5-yl)methanone]
2 | C[C@@H]1CN(S(=O)(=O)c2ccccc2C(F)(F)F)C[C@H](C)N1C(=O)c1c[nH]nn1 [Example 47, [(2R,6S)-2,6-dimethyl-4-{[2-(trifluoromethyl)phenyl]sulfonyl}piperazin-1-yl](1H-1,2,3-triazol-4-yl)methanone]
3 | C[C@@H]1CN(S(=O)(=O)c2cccc(Cl)c2)C[C@H](C)N1C(=O)c1c[nH]nn1 [Example 48, {(2R,6S)-4-[(3-chlorophenyl)sulfonyl]-2,6-dimethylpiperazin-1-yl}(1H-1,2,3-triazol-4-yl)methanone]
9 | C[C@@H]1CN(S(=O)(=O)c2cccc(F)c2)C[C@H](C)N1C(=O)c1c[nH]nn1 [Example 52, {(2R,6S)-4-[(3-fluorophenyl)sulfonyl]-2,6-dimethylpiperazin-1-yl}(1H-1,2,3-triazol-4-yl)methanone]

Further lines, the compound ahead of its results:

Compound | IC50 [nM]
CC1(C)CN(C(=O)c2c[nH]nn2)CCN1S(=O)(=O)c1cc(F)cc(F)c1 [Example 29, {4-[(3,5-difluorophenyl)sulfonyl]-3,3-dimethylpiperazin-1-yl}(1H-1,2,3-triazol-4-yl)methanone] | 11
Cc1ccccc1S(=O)(=O)N1CCN(C(=O)c2cnn[nH]2)CC1(C)C [Example 31, {3,3-dimethyl-4-[(2-methylphenyl)sulfonyl]piperazin-1-yl}(1H-1,2,3-triazol-5-yl)methanone] | 5
CC1(C)CN(C(=O)c2cnn[nH]2)CCN1S(=O)(=O)c1ccccc1Cl [Example 32, {4-[(2-chlorophenyl)sulfonyl]-3,3-dimethylpiperazin-1-yl}(1H-1,2,3-triazol-5-yl)methanone] | 15
CC1(C)CN(C(=O)c2cnn[nH]2)CCN1S(=O)(=O)c1ccccc1F [Example 34, {4-[(2-fluorophenyl)sulfonyl]-3,3-dimethylpiperazin-1-yl}(1H-1,2,3-triazol-5-yl)methanone] | 16
CC1(C)CN(C(=O)c2cnn[nH]2)CCN1S(=O)(=O)c1c(F)cccc1F [Example 35, {4-[(2,6-difluorophenyl)sulfonyl]-3,3-dimethylpiperazin-1-yl}(1H-1,2,3-triazol-5-yl)methanone] | 46
CC1(C)CN(C(=O)c2cnn[nH]2)CCN1S(=O)(=O)c1cc(F)ccc1F [Example 37, {4-[(2,5-difluorophenyl)sulfonyl]-3,3-dimethylpiperazin-1-yl}(1H-1,2,3-triazol-5-yl)methanone] | 8
C[C@@H]1CN(C(=O)c2c[nH]nn2)C[C@H](C)N1S(=O)(=O)c1ccccc1 [Example 38, [(3R,5S)-3,5-dimethyl-4-(phenylsulfonyl)piperazin-1-yl](1H-1,2,3-triazol-4-yl)methanone] | 14
C[C@@H]1CN(C(=O)c2cnn[nH]2)C[C@H](C)N1S(=O)(=O)c1cc(Cl)cc(Cl)c1 [Example 40, {(3R,5S)-4-[(3,5-dichlorophenyl)sulfonyl]-3,5-dimethylpiperazin-1-yl}(1H-1,2,3-triazol-5-yl)methanone] | 2
C[C@@H]1CN(C(=O)c2cnn[nH]2)C[C@H](C)N1S(=O)(=O)c1cc(F)cc(F)c1 [Example 42, {(3R,5S)-4-[(3,5-difluorophenyl)sulfonyl]-3,5-dimethylpiperazin-1-yl}(1H-1,2,3-triazol-5-yl)methanone] | 9
C[C@@H]1CN(S(=O)(=O)c2cc(Cl)ccc2Cl)C[C@H](C)N1C(=O)c1c[nH]nn1 [Example 43, {(2R,6S)-4-[(2,5-dichlorophenyl)sulfonyl]-2,6-dimethylpiperazin-1-yl}(1H-1,2,3-triazol-4-yl)methanone] | 2
C[C@@H]1CN(S(=O)(=O)c2ccc(F)cc2)C[C@H](C)N1C(=O)c1c[nH]nn1 [Example 44, {(2R,6S)-4-[(4-fluorophenyl)sulfonyl]-2,6-dimethylpiperazin-1-yl}(1H-1,2,3-triazol-4-yl)methanone] | 48
Cc1ccccc1S(=O)(=O)N1C[C@@H](C)N(C(=O)c2c[nH]nn2)[C@@H](C)C1 [Example 45, {(2R,6S)-2,6-dimethyl-4-[(2-methylphenyl)sulfonyl]piperazin-1-yl}(1H-1,2,3-triazol-4-yl)methanone] | 1
C[C@@H]1CN(S(=O)(=O)c2ccccc2Cl)C[C@H](C)N1C(=O)c1c[nH]nn1 [Example 46, {(2R,6S)-4-[(2-chlorophenyl)sulfonyl]-2,6-dimethylpiperazin-1-yl}(1H-1,2,3-triazol-4-yl)methanone] | 2
Cc1cccc(S(=O)(=O)N2C[C@@H](C)N(C(=O)c3c[nH]nn3)[C@@H](C)C2)c1 [Example 49, {(2R,6S)-2,6-dimethyl-4-[(3-methylphenyl)sulfonyl]piperazin-1-yl}(1H-1,2,3-triazol-4-yl)methanone] | 6
C[C@@H]1CN(S(=O)(=O)c2cccc(Br)c2)C[C@H](C)N1C(=O)c1c[nH]nn1 [Example 50, {(2R,6S)-4-[(3-bromophenyl)sulfonyl]-2,6-dimethylpiperazin-1-yl}(1H-1,2,3-triazol-4-yl)methanone] | 3
C[C@@H]1CN(S(=O)(=O)c2ccccc2F)C[C@H](C)N1C(=O)c1c[nH]nn1 [Example 51, {(2R,6S)-4-[(2-fluorophenyl)sulfonyl]-2,6-dimethylpiperazin-1-yl}(1H-1,2,3-triazol-4-yl)methanone] | 6
C[C@@H]1CN(S(=O)(=O)c2c(F)cccc2F)C[C@H](C)N1C(=O)c1c[nH]nn1 [Example 53, {(2R,6S)-4-[(2,6-difluorophenyl)sulfonyl]-2,6-dimethylpiperazin-1-yl}(1H-1,2,3-triazol-4-yl)methanone] | 9
C[C@@H]1CN(S(=O)(=O)c2cccc(C#N)c2)C[C@H](C)N1C(=O)c1c[nH]nn1 [Example 54, 3-{[(3R,5S)-3,5-dimethyl-4-(1H-1,2,3-triazol-4-ylcarbonyl)piperazin-1-yl]sulfonyl}benzonitrile] | 118
C[C@@H]1CN(S(=O)(=O)c2cccc(Cl)c2F)C[C@H](C)N1C(=O)c1c[nH]nn1 [Example 55, {(2R,6S)-4-[(3-chloro-2-fluorophenyl)sulfonyl]-2,6-dimethylpiperazin-1-yl}(1H-1,2,3-triazol-4-yl)methanone] | 10

From patent publication US20200079758A1, “[4-(PHENYLSULFONYL)PIPERAZIN-1-YL](1H-1,2,3-TRIAZOL-4-YL)METHANONES” (priority 2016, published 2020)
